Results from ChEMBL document CHEMBL4619814, “Identification and Development of 1,4-Diaryl-1,2,3-triazolo-Based Ureas as Novel FLT3 Inhibitors” (ACS Med Chem Lett, 2020).
Activity calls are given as the source filed them. The rule behind the calls is not given here.

How the values were obtained:
[1] = target: Macrophage colony-stimulating factor 1 receptor (Homo sapiens, UniProt P07333); assay: Binding affinity to recombinant human CSF1R (564 to 939 residues) expressed in bacterial expression system by Kinomescan method
Macrophage colony-stimulating factor 1 receptor, sequence (P07333 whole entry, the tested form may be a part): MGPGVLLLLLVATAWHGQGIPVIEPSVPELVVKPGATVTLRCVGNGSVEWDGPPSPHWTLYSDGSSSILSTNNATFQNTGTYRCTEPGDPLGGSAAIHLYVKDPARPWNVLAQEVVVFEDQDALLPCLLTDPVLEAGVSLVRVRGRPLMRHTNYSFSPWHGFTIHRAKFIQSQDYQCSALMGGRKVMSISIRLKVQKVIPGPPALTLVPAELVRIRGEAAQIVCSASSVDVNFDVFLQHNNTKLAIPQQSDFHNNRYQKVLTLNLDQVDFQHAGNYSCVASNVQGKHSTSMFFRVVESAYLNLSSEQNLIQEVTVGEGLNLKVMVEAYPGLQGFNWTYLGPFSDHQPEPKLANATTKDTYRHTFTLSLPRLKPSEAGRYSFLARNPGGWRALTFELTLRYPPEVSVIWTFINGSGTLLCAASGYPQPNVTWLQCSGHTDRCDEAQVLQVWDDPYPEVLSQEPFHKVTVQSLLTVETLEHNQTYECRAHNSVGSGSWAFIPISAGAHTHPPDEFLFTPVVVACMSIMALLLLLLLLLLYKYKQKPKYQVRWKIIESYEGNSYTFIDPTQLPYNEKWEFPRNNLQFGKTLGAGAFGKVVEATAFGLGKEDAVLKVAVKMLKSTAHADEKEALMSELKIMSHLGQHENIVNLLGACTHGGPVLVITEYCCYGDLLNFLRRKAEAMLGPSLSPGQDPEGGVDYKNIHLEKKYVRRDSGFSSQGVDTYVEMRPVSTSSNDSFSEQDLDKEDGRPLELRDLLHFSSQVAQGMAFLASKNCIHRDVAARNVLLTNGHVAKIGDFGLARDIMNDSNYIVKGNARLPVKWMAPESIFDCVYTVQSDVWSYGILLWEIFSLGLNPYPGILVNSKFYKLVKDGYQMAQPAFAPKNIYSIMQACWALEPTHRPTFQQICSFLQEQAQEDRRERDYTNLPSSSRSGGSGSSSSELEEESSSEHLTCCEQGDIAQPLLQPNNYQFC

[2] = target: Receptor-type tyrosine-protein kinase FLT3 (Homo sapiens, UniProt P36888, ITD)
Description: Binding affinity to recombinant human FLT3 ITD mutant expressed in bacterial expression system by Kinomescan method

[3] = target: Receptor-type tyrosine-protein kinase FLT3 (Homo sapiens, UniProt P36888, D835V/ITD)
Description: Binding affinity to recombinant human FLT3 ITD/D835V double mutant expressed in bacterial expression system by Kinomescan method

[4] = target: Receptor-type tyrosine-protein kinase FLT3 (Homo sapiens, UniProt P36888, F691L/ITD)
Description: Binding affinity to recombinant human FLT3 ITD/F691L double mutant expressed in bacterial expression system by Kinomescan method

[5] = system: Receptor-type tyrosine-protein kinase FLT3 (Homo sapiens), P36888 [UNDEFINED MUTATION]; assay: Inhibition of FLT3 ITD mutant expressed in human MV4-11 cells assessed as reduction in STAT5 level at 4 nM incubated for 6 hrs by Western blot analysis; assay type: cell-based
[6] = system: Receptor-type tyrosine-protein kinase FLT3 (Homo sapiens), P36888 [UNDEFINED MUTATION]; assay: Inhibition of FLT3 ITD mutant expressed in human MV4-11 cells assessed as reduction in STAT5 level at > 20 nM incubated for 6 hrs by Western blot analysis relative to control; assay type: cell-based
[7] = system: MV4-11; assay: Induction of cell cycle arrest in human MV4-11 cells assessed as G0/G1 phase at 20 nM incubated for 48 hrs by propidium iodide staining based flow cytometry analysis (reference value: 54.82 %); assay type: functional
[8] = system: MV4-11; assay: Induction of cell cycle arrest in human MV4-11 cells assessed as S phase at 20 nM incubated for 48 hrs by propidium iodide staining based flow cytometry analysis (reference value: 20.14 %); assay type: functional
[9] = system: MV4-11; assay: Induction of apoptosis in human MV4-11 cells assessed as viable cells at 4 nM incubated for 48 hrs by annexin V and 7-AAD staining based flow cytometry analysis (reference value: 90.47 %); assay type: functional; details: MV4-11, 48 h, read-out: Activity
[10] = system: MV4-11; assay: Induction of apoptosis in human MV4-11 cells assessed as late apoptotic cells at 4 nM incubated for 48 hrs by annexin V and 7-AAD staining based flow cytometry analysis (reference value: 2.25 %); assay type: functional
[11] = system: MV4-11; assay: Induction of apoptosis in human MV4-11 cells assessed as necrotic cells at 4 nM incubated for 48 hrs by annexin V and 7-AAD staining based flow cytometry analysis (reference value: 0.91 %); assay type: functional
[12] = system: MV4-11; assay: Induction of apoptosis in human MV4-11 cells assessed as viable cells at 20 nM incubated for 48 hrs by annexin V and 7-AAD staining based flow cytometry analysis (reference value: 90.47 %); assay type: functional; details: MV4-11, 48 h, read-out: Activity
[13] = system: MV4-11; assay: Induction of apoptosis in human MV4-11 cells assessed as early apoptotic cells at 20 nM incubated for 48 hrs by annexin V and 7-AAD staining based flow cytometry analysis (reference value: 6.36 %); assay type: functional
[14] = system: MV4-11; assay: Induction of apoptosis in human MV4-11 cells assessed as late apoptotic cells at 20 nM incubated for 48 hrs by annexin V and 7-AAD staining based flow cytometry analysis (reference value: 2.25 %); assay type: functional
[15] = system: MV4-11; assay: Induction of apoptosis in human MV4-11 cells assessed as necrotic cells at 20 nM incubated for 48 hrs by annexin V and 7-AAD staining based flow cytometry analysis (reference value: 0.91 %); assay type: functional
[16] = system: MV4-11; assay: Induction of apoptosis in human MV4-11 cells assessed as viable cells at 100 nM incubated for 48 hrs by annexin V and 7-AAD staining based flow cytometry analysis (reference value: 90.47 %); assay type: functional; details: MV4-11, 48 h, read-out: Activity
[17] = system: MV4-11; assay: Induction of apoptosis in human MV4-11 cells assessed as early apoptotic cells at 100 nM incubated for 48 hrs by annexin V and 7-AAD staining based flow cytometry analysis (reference value: 6.36 %); assay type: functional
[18] = system: MV4-11; assay: Induction of cell cycle arrest in human MV4-11 cells assessed as reduction in CDK4 expression at 0.16 to 100 nM by Western blot analysis; assay type: functional, cell-based
[19] = Half life in Sprague-Dawley rat at 5 mg/kg, iv; assay type: ADME, organism-based; details: in vivo
[20] = AUC in Sprague-Dawley rat at 25 mg/kg, po; assay type: ADME, organism-based; details: in vivo
[21] = Cmax in Sprague-Dawley rat at 25 mg/kg, po; assay type: ADME, organism-based; design: dose 25 mg/kg, route oral; details: in vivo
[22] = Tmax in Sprague-Dawley rat at 25 mg/kg, po; assay type: ADME, organism-based; details: in vivo
[23] = Half life in Sprague-Dawley rat at 25 mg/kg, po; assay type: ADME, organism-based; details: in vivo
[24] = Clearance in Sprague-Dawley rat at 25 mg/kg, po; assay type: ADME, organism-based; details: in vivo
[25] = system: MV4-11; assay: Antitumor activity at human MV4-11 cells xenografted in CB17-SCID mouse assessed as tumor growth inhibition at 40 mg/kg, po administered for 10 days and measured on day 10 relative to control; assay type: functional; details: MV4-11, po, 240 h, read-out: TGI
[26] = target: Mast/stem cell growth factor receptor Kit (Homo sapiens, UniProt P10721)
Mast/stem cell growth factor receptor Kit, sequence (P10721 whole entry): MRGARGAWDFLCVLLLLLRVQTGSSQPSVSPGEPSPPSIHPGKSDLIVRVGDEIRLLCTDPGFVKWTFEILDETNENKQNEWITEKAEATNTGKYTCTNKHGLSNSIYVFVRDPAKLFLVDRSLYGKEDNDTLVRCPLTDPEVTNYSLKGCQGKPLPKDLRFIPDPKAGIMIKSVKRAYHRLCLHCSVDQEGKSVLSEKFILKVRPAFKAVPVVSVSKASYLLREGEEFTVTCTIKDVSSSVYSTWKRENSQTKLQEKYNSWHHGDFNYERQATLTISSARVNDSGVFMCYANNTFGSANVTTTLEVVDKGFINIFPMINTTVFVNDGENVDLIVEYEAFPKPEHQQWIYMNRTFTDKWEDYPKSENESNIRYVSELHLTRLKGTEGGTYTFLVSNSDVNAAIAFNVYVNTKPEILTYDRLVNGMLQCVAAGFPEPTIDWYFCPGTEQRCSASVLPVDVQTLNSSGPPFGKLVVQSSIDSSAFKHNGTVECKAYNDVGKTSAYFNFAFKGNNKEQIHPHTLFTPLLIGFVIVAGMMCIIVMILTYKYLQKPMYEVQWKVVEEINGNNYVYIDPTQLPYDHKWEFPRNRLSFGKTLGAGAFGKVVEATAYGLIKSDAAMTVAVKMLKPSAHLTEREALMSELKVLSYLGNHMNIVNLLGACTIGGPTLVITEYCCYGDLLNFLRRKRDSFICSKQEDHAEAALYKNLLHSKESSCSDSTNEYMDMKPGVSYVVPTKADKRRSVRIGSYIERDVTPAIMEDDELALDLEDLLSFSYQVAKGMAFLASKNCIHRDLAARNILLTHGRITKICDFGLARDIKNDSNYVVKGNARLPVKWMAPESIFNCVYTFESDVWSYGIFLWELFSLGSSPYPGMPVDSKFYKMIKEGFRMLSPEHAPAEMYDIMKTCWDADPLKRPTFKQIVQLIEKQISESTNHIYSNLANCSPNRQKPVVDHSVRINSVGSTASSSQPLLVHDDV
Description: Binding affinity to recombinant human KIT (571 to 972 residues) expressed in bacterial expression system by Kinomescan method

[27] = target: Proto-oncogene tyrosine-protein kinase receptor Ret (Homo sapiens, UniProt P07949)
Proto-oncogene tyrosine-protein kinase receptor Ret, sequence (P07949 whole entry): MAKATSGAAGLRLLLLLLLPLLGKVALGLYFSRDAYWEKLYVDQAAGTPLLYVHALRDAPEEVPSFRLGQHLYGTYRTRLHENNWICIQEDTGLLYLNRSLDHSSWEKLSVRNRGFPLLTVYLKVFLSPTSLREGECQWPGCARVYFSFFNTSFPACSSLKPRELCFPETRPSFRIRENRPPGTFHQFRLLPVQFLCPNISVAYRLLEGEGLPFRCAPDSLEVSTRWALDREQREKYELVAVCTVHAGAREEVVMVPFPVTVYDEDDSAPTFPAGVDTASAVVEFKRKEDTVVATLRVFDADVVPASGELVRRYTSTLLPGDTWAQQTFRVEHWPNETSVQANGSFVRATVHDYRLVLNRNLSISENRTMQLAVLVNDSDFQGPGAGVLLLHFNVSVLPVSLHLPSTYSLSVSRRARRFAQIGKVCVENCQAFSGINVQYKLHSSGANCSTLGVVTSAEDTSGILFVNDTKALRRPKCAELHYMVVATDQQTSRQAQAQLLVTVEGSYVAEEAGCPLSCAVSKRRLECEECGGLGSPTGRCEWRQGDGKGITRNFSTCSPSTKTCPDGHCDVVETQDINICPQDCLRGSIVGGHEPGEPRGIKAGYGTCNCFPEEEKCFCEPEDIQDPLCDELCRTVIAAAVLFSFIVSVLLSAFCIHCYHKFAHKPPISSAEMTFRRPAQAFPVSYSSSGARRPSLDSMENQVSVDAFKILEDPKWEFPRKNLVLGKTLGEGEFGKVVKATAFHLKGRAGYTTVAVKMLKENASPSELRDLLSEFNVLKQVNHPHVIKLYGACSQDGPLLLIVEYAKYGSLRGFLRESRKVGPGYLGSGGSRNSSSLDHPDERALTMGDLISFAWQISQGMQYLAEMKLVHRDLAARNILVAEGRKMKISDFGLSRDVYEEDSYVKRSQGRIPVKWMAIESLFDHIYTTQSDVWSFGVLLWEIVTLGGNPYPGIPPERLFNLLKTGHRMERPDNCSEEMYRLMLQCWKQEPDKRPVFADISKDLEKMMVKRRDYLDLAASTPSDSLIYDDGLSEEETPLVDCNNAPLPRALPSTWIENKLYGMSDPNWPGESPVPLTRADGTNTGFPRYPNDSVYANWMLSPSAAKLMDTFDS
Description: Binding affinity to recombinant human RET (713 to 1014 residues) expressed in bacterial expression system by Kinomescan method

[28] = system: MOLM-13; assay: cells; details: Homo sapiens, MOLM-13, 72 h
Description: Cytotoxicity against human MOLM13 cells assessed as reduction in cell viability incubated for 72 hrs by CCK8 assay

[29] = system: U-937; assay: cells; details: Homo sapiens, U-937, 72 h
Description: Cytotoxicity against human U937 cells assessed as reduction in cell viability incubated for 72 hrs by CCK8 assay

[30] = system: KG-1; assay: cells; details: Homo sapiens, KG-1, 72 h
Description: Cytotoxicity against human KG1 cells assessed as reduction in cell viability incubated for 72 hrs by CCK8 assay

[31] = system: HL-60; assay: cells; details: Homo sapiens, HL-60, 72 h
Description: Cytotoxicity against human HL60 cells assessed as reduction in cell viability incubated for 72 hrs by CCK8 assay

[32] = in vitro; details: mouse, BaF3 cells
Description: Cytotoxicity against human BAF3 cells assessed as growth inhibition incubated for 72 hrs by CCK8 assay

SMILES: CC(C)(C)c1cc(NC(=O)Nc2ccc(-c3cn(-c4ccc(OCCN5CCOCC5)cc4Cl)nn3)cc2)no1
- Kd [1]: 100 nM
- Kd [2]: 6.9 nM
- Kd [3]: 10000 nM
- Kd [4]: 2400 nM
- inhibition [5]: Active
- inhibition [6]: 100%
- Activity [7]: 87.8%
- Activity [8]: 5.68%
- viability at 0.004 µM [9]: 88.7%
- Activity [10]: 2.64%
- Activity [11]: 1.15%
- viability at 0.02 µM [12]: 84%
- Activity [13]: 10.62%
- Activity [14]: 4.31%
- Activity [15]: 1.09%
- viability at 0.1 µM [16]: 71.6%
- Activity [17]: 13.06%
- Activity [18]: Active
- half-life [19]: 5.11 h
- AUC [20]: 41300 ng·h/mL
- Cmax [21]: 3220 ng/mL
- Tmax [22]: 4 h
- half-life [23]: 6.77 h
- CL/F [24]: 10.6 mL/min/kg
- inhibition in vivo at 40 mg/kg [25]: 80.1%
- Kd [26]: 21 nM
- Kd [27]: 24 nM
- GI50 [28]: 5.9 nM
- GI50 [29]: > 3000 nM
- GI50 [30]: > 3000 nM
- GI50 [31]: > 3000 nM
- GI50 at 72 h [32]: > 3000 nM
